# Active and inactive are the calls of the source.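 Rule for the calls: active = fitted half-maximal concentration for changing reporter fluorescence at or below a set limit; inactive = the rest.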
# Molecular target: Citrate synthase, peroxisomal (Saccharomyces cerevisiae (strain ATCC 204508 / S288c)) (UniProt P08679)
# Assay: yeast TOR pathway CIT2-GFP reporter potency – flow cytometry, MLPCN hits, dose response (AID 2744)
# Details: S. cerevisiae CIT2-GFP strain, 3 h, at 33 µM (top of the series)
# Chain of Citrate synthase, peroxisomal (Saccharomyces cerevisiae (strain ATCC 204508 / S288c)) (P08679 whole entry, looked up): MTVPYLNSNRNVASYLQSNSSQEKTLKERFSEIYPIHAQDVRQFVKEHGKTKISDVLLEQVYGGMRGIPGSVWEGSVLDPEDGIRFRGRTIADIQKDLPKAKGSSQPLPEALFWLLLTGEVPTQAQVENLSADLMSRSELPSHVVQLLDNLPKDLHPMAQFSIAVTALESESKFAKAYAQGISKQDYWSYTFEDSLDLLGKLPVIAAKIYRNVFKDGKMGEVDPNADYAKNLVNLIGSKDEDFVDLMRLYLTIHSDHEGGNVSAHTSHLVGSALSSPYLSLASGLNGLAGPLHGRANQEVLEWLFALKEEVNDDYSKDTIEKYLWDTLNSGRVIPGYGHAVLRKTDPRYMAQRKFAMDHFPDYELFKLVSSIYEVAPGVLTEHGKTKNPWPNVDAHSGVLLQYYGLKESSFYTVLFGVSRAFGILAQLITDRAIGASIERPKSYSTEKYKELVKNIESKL
row,Compound,"GFP fluorescence, higher = induction"
1,COc1ccc(C2(C)ON(c3ccccc3C(F)(F)F)C2=O)cc1 (configuration not stated),inactive
2,CN(Cc1cnc2nc(N)nc(N)c2n1)c1ccc(C(=O)N[C@@H](CCC(=O)O)C(=O)O)cc1,inactive
3,O=S(=O)(c1ccccc1)c1ccc(C(F)(F)F)cn1,inactive
4,O=C1CCN(S(=O)(=O)c2ccccc2)CCN1CCOCc1ccc(F)cc1,inactive
5,COc1ccccc1N=Cc1nc(-c2ccccc2)oc1OC(C)=O,inactive
6,O=C(Nc1nc(-c2ccccn2)cs1)c1cc2ccccc2o1,inactive
7,Cc1ccc(C2=NOC(=O)/C2=C\c2ccc(C)o2)cc1,inactive
8,Cc1c(NC2=C(Cl)C(=O)N(c3ccccc3)C2=O)c(=O)n(-c2ccccc2)n1C,inactive
9,CN(C)NC(=S)Nc1ccc(S(=O)(=O)N2CCCCC2)cc1,inactive
10,COc1ccc2c(c1)S/C(=C\C(=O)c1ccncc1)N2C,inactive
11,CN(C)C(=O)Oc1ccnc2cc(Cl)ccc12,inactive
12,CCOC(=O)c1c(C)oc2c1c(C(c1ccncc1)N1CCOCC1)c(O)c1ccccc12 (configuration not stated),inactive
13,O=S(=O)(/N=C(/Sc1ccccc1)c1ccccc1)c1ccccc1,inactive
14,Oc1ccc2ccccc2c1/C=N/Nc1nnc(-c2ncc[nH]2)c2ccccc12,inactive
15,Cc1cc(=O)oc2cc(Oc3ccc([N+](=O)[O-])cc3C(F)(F)F)ccc12,inactive
16,C#CCOCCOCCOCCNc1nc(N2CCN(C(=O)CCCCCCCCCCNC(=O)[C@H](CCCCN)n3cc(CCO)nn3)CC2)nc(N2CCN(C(=O)CCCCCCCCCCNC(=O)[C@H](CCCCN)n3cc(C[C@@H](C)CC)nn3)CC2)n1,inactive
17,COc1ccc(/C=C/C(=O)c2cc(Br)ccc(=O)c2O)cc1,inactive
18,COc1ccc(N2C(=O)/C(=C/c3cccs3)C(=O)NC2=S)cc1,inactive
19,Cc1ccc(C(=O)NNC(=S)NC(=O)COc2ccccc2)cc1,inactive
20,O=C(COc1ccccc1)N1CCN(c2ncnc3c2cnn3-c2ccccc2)CC1,inactive
21,Oc1c(I)cc(Cl)c2cccnc12,inactive
22,C/C(=N\NC(=O)c1cc2ccccc2cc1O)c1ccccn1,inactive
23,Cc1ccc2nc(Cl)c3nnnn3c2c1,inactive

row,Compound,"GFP fluorescence, higher = induction"
1,O=C(O)c1ccccc1SC1CC(=O)N(c2ccc3c(c2)OCO3)C1=O (configuration not stated),inactive
2,Clc1cccc(CN2COc3c(cc(Cl)c4cccnc34)C2)c1,inactive
3,CC(=O)Oc1ccc(N2C(=O)C3C4C=CC(CO)(O4)C3C2=O)cc1 (configuration not stated),inactive
4,CC1(C(=O)NC(=S)NNC(=O)c2ccncc2)CCCCC1,inactive
5,COc1cccc(C(=O)Nc2nnc(-c3ccc(Cl)cc3)o2)c1,inactive
6,Cc1[nH]n(-c2ncc(-c3ccccc3)s2)c(=O)c1C(c1ccc(Cl)cc1)C(C#N)C#N (configuration not stated),inactive
7,COc1ccc(OC)c(S(=O)(=O)ON2C(=O)c3ccccc3C2=O)c1,inactive
8,CS(=O)(=O)c1nc(-c2cccs2)cc(C(F)(F)F)n1,inactive
9,CC(=O)Oc1ccc(/C=c2\sc3ncnn3c2=O)cc1,inactive
10,CCc1ccc(OCC(=O)NNC(=S)NC(=O)C2CC2)c(Br)c1,inactive
11,Cc1sc(/C=C2\C(=O)ON=C2c2ccccc2)cc1Br,inactive
12,CC(Oc1ccc(Cl)cc1)C(=O)NNC(=S)NC(=O)c1ccco1 (configuration not stated),inactive
13,O=C(/C=C/c1ccc(F)cc1)NC(=S)NNC(=O)c1cnccn1,inactive
14,CCc1ccc(C(=O)/C=C/c2ccc([N+](=O)[O-])o2)cc1,inactive
15,CC(C)Oc1ccc(C(=O)/C=C2/C(=O)Nc3ccccc32)cc1,inactive
16,CCOC(=O)c1cc(-c2ccc(/C=C3/C(=O)NC(=O)C(C#N)=C3C)o2)ccc1Cl,inactive
17,CSC1=NS(=O)(=O)c2c(C)nn(C)c2S1,inactive
18,COc1cc(/C=C2/C(=O)c3cccc([N+](=O)[O-])c3C2=O)c(Br)cc1O,inactive
19,Cc1[nH][nH]c(=O)c1C(c1ccc(-c2ccc(Cl)c(Cl)c2)o1)c1c(C)[nH][nH]c1=O,inactive
20,Cc1cc2ccccn2c1C(=O)c1ccc([N+](=O)[O-])o1,inactive
21,Cc1ccccc1[C@@]1(C)ON(c2ccccc2C(F)(F)F)C1=O,inactive
22,Fc1cccc(Nc2ncnc3c2cnn3-c2ccccc2)c1,inactive
23,CCCc1cc(NCc2ccccn2)n2nc(C)c(-c3ccccc3)c2n1,inactive

row,Compound,"GFP fluorescence, higher = induction"
1,C/C(=N\Nc1ncnc2sc(C)c(C)c12)c1ccccn1,inactive
2,Cc1ccc(/C=C/C(=O)c2ccc([N+](=O)[O-])o2)cc1,inactive
3,COc1ccc([N+](=O)[O-])c(S(=O)(=O)c2ccccc2)n1,inactive
4,CCC(=O)Nc1ccc(NC(=O)c2cc3ccccc3o2)cc1,inactive
5,Cc1cc(/C=C2/SC(=S)N(c3cccc(Cl)c3)C2=O)c(C)n1-c1cccnc1,inactive
6,COc1ccc(C(=O)NNC(=S)NC(=O)/C=C/c2cccs2)cc1,inactive
7,COc1cc(NC(=O)c2ccc(C)cc2)ccc1NC(=O)c1cc2ccccc2o1,inactive
8,Cc1ccsc1/C=C1\C(=O)NC(=S)N(C)C1=O,inactive
9,CC(C)(C)c1nnc(N/N=C/c2cc(Br)ccc2O)n(N)c1=O,inactive
10,Oc1c(C(Nc2cccc(C(F)(F)F)c2)c2ccncc2)ccc2cccnc12 (configuration not stated),inactive
11,O=C(COc1ccccc1)NNC(=S)NC(=O)c1ccc(Cl)cc1Cl,inactive
12,O=C1C=CC(=O)N1c1ccc(O)cc1,inactive
13,COc1ccc(NC2=C(Cl)C(=O)N(CCc3ccccc3)C2=O)c(OC)c1,inactive
14,C=C1C(O)[C@@H]2O[C@]3(CC[C@H](/C=C/C(C)[C@@H]4CC(C)=CC5(O[C@H](C[C@@](C)(O)C(=O)O)CCC5O)O4)O3)CC[C@H]2O[C@@H]1C(O)CC(C)[C@H]1OC2(CCCCO2)CCC1C (some centres not stated),inactive
15,COc1ccc([N+](=O)[O-])c(S(=O)(=O)c2ccc(Cl)cc2)n1,inactive
16,COc1ccc(N=Cc2nc(-c3ccccc3)oc2OC(=O)c2ccccc2)cc1,inactive
17,CCOC(=O)Cn1cc(/C=C/[N+](=O)[O-])c2ccccc21,inactive
18,COc1ccccc1N1C(=O)c2cccc3c(C(=O)O)ccc(c23)C1=O,inactive
19,O=C(/C=C/c1ccccc1[N+](=O)[O-])c1ccccc1Br,inactive
20,COc1cc(CNC(=O)CCCCCCC(C)C)ccc1O,inactive
21,O=C1NC(=O)N(CCc2ccc(F)cc2)C(=O)/C1=C/c1cccs1,inactive
22,CCCCc1ccc(/C=C2/C(=O)ON=C2c2ccccc2)s1,inactive
23,Oc1ccc(CNc2ccccc2)c2cccnc12,inactive

row,Compound,"GFP fluorescence, higher = induction"
1,O=C1C=C(Nc2ccc(Cl)cc2)C(=O)N1c1ccc(Cl)cc1,inactive
2,CCC1(c2ccccc2)ON(c2c(Br)cccc2Br)C1=O (configuration not stated),inactive
3,COc1ccc(NC(=O)/C(Cl)=C(/Cl)S(=O)Cc2ccccc2)cn1 (configuration not stated),inactive
4,O=S(=O)(CCN(CCS(=O)(=O)C(F)(F)F)CC1CCCO1)C(F)(F)F (configuration not stated),inactive
5,Cc1ccc(NC(=O)CCc2ccccc2)cc1S(=O)(=O)N1CCOCC1,inactive
6,CCC(C)/C(C)=N/NC(=O)c1ccc(COc2ccc(Cl)c(C)c2)cc1 (configuration not stated),inactive
7,COc1ccc(N2C(=O)C(Cl)=C(Oc3cccc(OC)c3)C2=O)cc1,inactive
8,CS(=O)(=O)N1N=C(c2ccccc2)CC1c1ccc2c(c1)OCO2 (configuration not stated),inactive
9,CN1CCN(C(c2ccc(C(F)(F)F)cc2)c2ccc3cccnc3c2O)CC1 (configuration not stated),inactive
10,Nc1ccc2ccc3cccc[n+]3c2c1,inactive
11,O=C(NC(=S)Nc1ccc2oc(=O)ccc2c1)c1cccc(Cl)c1,inactive
12,CCCOc1ccc(C(=O)NNC(=S)NC(=O)c2ccco2)cc1,inactive
13,CC(=O)N(C(C)=O)c1ncnc2c1c(-c1ccc(Cl)cc1)nn2C(C)(C)C,inactive
14,O=C(/C=C/c1ccccc1Cl)c1ccccc(=O)c1O,inactive
15,CCN(CC)C(=O)Oc1ccnc2cc(Cl)ccc12,inactive
16,O/C=c1\ccc2cccc3nc(C(F)(F)F)nc1c23,inactive
17,COc1cc(SSc2cc(OC)cc([N+](=O)[O-])c2N)c(N)c([N+](=O)[O-])c1,inactive
18,O=C1N(c2ccccc2C(F)(F)F)OC1(Cc1ccccc1)c1ccccc1 (configuration not stated),inactive
19,O=C1C(Cl)=C(NCCc2ccccc2)C(=O)N1CCc1ccccc1,inactive
20,O=C(c1ccc(C(=O)N2CCCc3ccccc32)s1)N1CCCc2ccccc21,inactive
21,O=c1c2cnn(-c3ccccc3)c2ncn1Cc1ccco1,inactive

# Same assay, conditions: S. cerevisiae CIT2-GFP strain, flow cytometry fluorescence, 3 h
row,Compound,EC50 [µM]
1,N/C(=N\OC(=O)c1cc(Br)ccc1Cl)c1ccccn1,4.11
2,Cc1ccc(/C(N)=N/OC(=O)c2ccc(F)cc2)cc1,3.81

# — PubChem BioAssay AID2744 (NMMLSC, 2010)
